This is an account of results in patent publication US20210317112A1, “HETEROCYCLIC COMPOUNDS AS PESTICIDES” (Bayer Aktiengesellschaft, priority 2017, published 2021).

A word on the mortality: it is the percentage killed.

Like-named read-outs stand apart in the source and are kept apart here.

Holding throughout (assay type): in vivo
For assay [1], the system named is brown planthopper (Nilaparvata lugens). The assay can be described thus: Nilaparvata lugens spray test (solvent 52.5 acetone / 7 DMF). The following applies: 96 h, application rate 500 g/ha, rice plants, after 4 days. Here is the method: Nilaparvata lugens—Spray Test Solvent: 52.5 parts by weight of acetone • 7 parts by weight of dimethylformamide Emulsifier: alkylaryl polyglycolether
To produce a suitable preparation of active compound, 1 part by weight of active compound is mixed with the stated amount of solvents and is diluted with water, containing an emulsifier concentration of 1000 ppm, to the desired concentration. Further test concentrations are prepared by dilution with emulsifier containing water. Ammonium salt and/or penetration enhancer in a dosage of 1000 ppm are added to the desired concentration if necessary.
Rice plants (Oryza sativa) are treated by being sprayed with the desired concentration of the active compound and are infested with larvae of the brown planthopper (Nilaparvata lugens).
(§1) After 4 days mortality in % is determined. 100% means all planthoppers have been killed and 0% means none of the planthoppers have been killed.

Assay [2] has as its system two spotted spidermite (Tetranychus urticae). The assay can be described thus: whole plant or invertebrate. The following applies: in Phaseolus vulgaris, foliar, 144 h, read-out: mortality in %. Here is the method:
Tetranychus urticae—Spray Test OP-Resistant Solvent: 78.0 parts by weight acetone • 1.5 parts by weight dimethylformamide Emulsifier: alkylarylpolyglycol ether
(§2) To produce a suitable preparation of active compound, 1 part by weight of active compound is mixed with the stated amount of solvents and is diluted with water, containing an emulsifier concentration of 1000 ppm, to the desired concentration. Further test concentrations are prepared by dilution with emulsifier containing water.
French bean (Phaseolus vulgaris) leaf disks infected with all instars of the two spotted spidermite (Tetranychus urticae), are sprayed with a preparation of the active ingredient of the desired concentration.
After 6 days mortality in % is determined. 100% means all spider mites have been killed and 0% means none of the spider mites have been killed.

Assay [3] has as its system mustard beetle larvae (Phaedon cochleariae). The assay can be described thus: Phaedon cochleariae spray test. The following applies: in Brassica rapa, foliar, 168 h, read-out: mortality in %. How it is done:
Phaedon cochleariae—Spray Test Solvent: 78.0 parts by weight of acetone • • 1.5 parts by weight of dimethylformamide Emulsifier: alkylarylpolyglycol ether
as §2
Chinese cabbage (Brassica pekinensis) leaf disks are sprayed with a preparation of the active ingredient of the desired concentration. Once dry, the leaf disks are infested with mustard beetle larvae (Phaedon cochleariae).
After 7 days mortality in % is determined. 100% means all beetle larvae have been killed and 0% means none of the beetle larvae have been killed.

In assay [4] the test system is southern green stink bug (Nezara viridula). The assay can be described thus: whole plant or invertebrate. The following applies: in Hordeum vulgare, 96 h, read-out: mortality in %. How it is done:
Nezara viridula—Spray Test Solvent: 52.5 parts by weight of acetone • 7 parts by weight of dimethylformamide Emulsifier: alkylaryl polyglycolether
To produce a suitable preparation of active compound, 1 part by weight of active compound is mixed with the stated amount of solvent, and the concentrate is diluted with water, containing an emulsifier concentration of 1000 ppm, to the desired concentration. Ammonium salt and/or penetration enhancer in a dosage of 1000 ppm are added to the desired concentration if necessary.
(§3) Barley plants (Hordeum vulgare) infested with larvae of the southern green stink bug (Nezara viridula) are sprayed with a test solution containing the desired concentration of the active ingredient.
(§4) After 4 days mortality in % is determined. 100% means all the stink bugs have been killed; 0% means none of the stink bugs have been killed.

Assay [5] relates to brown planthopper (Nilaparvata lugens). Nature of the assay: Nilaparvata lugens spray test (solvent 78.0 acetone / 1.5 DMF). The following applies: 96 h, application rate 500 g/ha, rice plants, after 4 days. Here is the method: Nilaparvata lugens—Spray Test Solvent: 78.0 parts by weight of acetone • • 1.5 parts by weight of dimethylformamide Emulsifier: alkylarylpolyglycol ether
as §2
Rice plants (Oryza sativa) are sprayed with a preparation of the active ingredient of the desired concentration and the plants are infested with the brown planthopper (Nilaparvata lugens).
as §1

Assay [6] deals with southern green stink bug (Nezara viridula). The assay can be described thus: whole plant or invertebrate. Particulars: in Hordeum vulgare, 96 h, read-out: mortality in %. Here is the method: Nezara viridula—Spray Test Solvent: 78.0 parts by weight of acetone • • 1.5 parts by weight of dimethylformamide Emulsifier: alkylarylpolyglycol ether
To produce a suitable preparation of active compound, 1 part by weight of active compound is mixed with the stated amount of solvent, and the concentrate is diluted with water, containing an emulsifier concentration of 1000 ppm, to the desired concentration. Further test concentrations are prepared by dilution with emulsifier containing water.
as §3, §4
The source holds these as a separate data set.

In assay [7] the test system is green peach aphid (Myzus persicae). Nature of the assay: whole plant or invertebrate. The following applies: po, 120 h, read-out: mortality in %. Here is the method: Myzus persicae—Oral Test Solvent: 100 parts by weight acetone
To produce a suitable preparation of active compound, 1 part by weight of active compound is mixed with the stated amount of solvent, and the concentrate is diluted with water to the desired concentration. 50 μl compound solution is filled in microtiter plates and 150 μl IPL41 insect medium (33%+15% sugar) is added to obtain a total volume of 200 μper well. Afterwards the plates are sealed with parafilm through which a mixed population of the green peach aphid (Myzus persicae) can suck on the compound preparation.
(§5) After 5 days mortality in % is determined. 100% means all aphids have been killed and 0% means none of the aphids have been killed.

Assay [8] shares this test system. The assay can be described thus: Myzus persicae spray test. Particulars: in Brassica rapa, foliar, 120 h, read-out: mortality in %. How it is done: Myzus persicae—spray test Solvent: 78.0 parts by weight acetone • 1.5 parts by weight dimethylformamide Emulsifier: alkylarylpolyglycol ether
as §2
Chinese cabbage (Brassica pekinensis) leaf disks infected with all instars of the green peach aphid (Myzus persicae), are sprayed with a preparation of the active ingredient of the desired concentration.
as §5

Take `O=C(Nc1nc(-c2c(F)cccc2F)no1)c1cccnc1C(F)(F)F` [Compound I-1-1, N-[3-(2,6-Difluorophenyl)-1,2,4-oxadiazol-5-yl]-2-(trifluoromethyl)nicotinamide]: the mortality at 500 g/ha in assay [1] amounted to 80%; in assay [2], 70%; in assay [3] it was 100%; in assay [4], 100%. For the same molecule, the mortality at 100 g/ha in assay [3] and in assay [4] was 100% in each case.
Consider `O=C(Nc1nc(-c2ccccc2C(F)(F)F)no1)c1cccnc1C(F)(F)F` [Compound I-1-8, 2-(trifluoromethyl)-N-{3-[2-(trifluoromethyl)phenyl]-1,2,4-oxadiazol-5-yl}nicotinamide], for which the mortality at 500 g/ha in assay [5] is 100%; in assay [2], 100%; in assay [6], 90%; in assay [3], 100%. The mortality at 100 g/ha in assay [2] stood at 100%.
For the molecule `O=C(Nc1nc(-c2c(F)ccc(Br)c2F)no1)c1cccnc1C(F)(F)F` [Compound I-1-12, N-[3-(3-bromo-2,6-difluorophenyl)-1,2,4-oxadiazol-5-yl]-2-(trifluoromethyl)nicotinamide], in assay [2], the mortality at 100 g/ha came out at 100% and the mortality at 500 g/ha came out at 100%. For the same molecule, in assay [3], the mortality at 100 g/ha worked out at 100% and the mortality at 500 g/ha was determined as 83%.
`N#Cc1c(-c2c(F)cccc2F)nsc1NC(=O)c1cccnc1C(F)(F)F` [Compound I-2-1, N-[4-Cyano-3-(2,6-difluorophenyl)-1,2-thiazol-5-yl]-2-(trifluoromethyl)nicotinamide]: the mortality at 20 ppm in assay [7] was 90%. The mortality at 500 g/ha in assay [6], in assay [3] and in assay [4] was 100% each time. In addition, in assay [4], the mortality at 100 g/ha came out at 100%.
Turning to `N#Cc1c(-c2ccccc2Cl)nsc1NC(=O)c1cccnc1Cl` [Compound I-2-6, 2-Chloro-N-[3-(2-chlorophenyl)-4-cyano-1,2-thiazol-5-yl]nicotinamide], the mortality at 500 g/ha in assay [2] is 70%; in assay [3], 83%; in assay [4], 100%; in assay [8], 100%.
For the molecule `N#Cc1c(-c2ccccc2C(F)(F)F)nsc1NC(=O)c1cccnc1Cl` [Compound I-2-7, 2-Chloro-N-{4-cyano-3-[2-(trifluoromethyl)phenyl]-1,2-thiazol-5-yl}nicotinamide], the mortality at 100 g/ha in assay [2] is 90%. Further, the mortality at 500 g/ha was found to be 90% in assay [2], 100% in assay [3] and 100% in assay [4].
For the molecule `N#Cc1sc(NC(=O)c2cccnc2C(F)(F)F)nc1-c1ccccc1C(F)(F)F` [Compound I-3-2, N-{5-Cyano-4-[2-(trifluoromethyl)phenyl]-1,3-thiazol-2-yl}-2-(trifluoromethyl)nicotinamide], the mortality at 500 g/ha in assay [1], in assay [2], in assay [3] and in assay [4] was 100% each time. Also, the mortality at 100 g/ha in assay [2], in assay [3] and in assay [4] was 100% in each case.
